Patent publication US20230024554A1, “METHOD OF CHARACTERIZING THE BINDING CHARACTERISTICS BETWEEN A PEPTIDE OF INTEREST AND MHC MOLECULES” (Immatics Biotechnologies GmbH, priority 2021, published 2023)
Ends that are not written are not given here.

Tests used:
[1] = test system: T2 cells; assay: Peptide loading of T2 cells with KLK3 peptide isotopologues; absolute pMHC copy numbers by BB7.2 immunoprecipitation and LC/MS; type: cell-based, human; details: T2 cells loaded at 0.1 μg/mL (~81 nM) peptide, 2 h incubation
Experimental: In order to translate detected relative ion intensities into an absolute measure, isotopologue-specific external calibration curves were acquired in two technical replicates. Therefore, a total of six different isotopologues (Table 1; reconstituted as described above) were mixed to a final concentration of 20 pmol μL^−1. This stock was subsequently further titrated in 5% formic acid prior to LC/MS analysis. The internal standard KLK3 peptide_L2P5 was added at a constant amount of 5 fmol per LC/MS injection. Samples were separated by reversed-phase chromatography (nanoAcquity UPLC, Waters, Milford, Mass.) using ACQUITY UPLC BEH C18 columns (75 μm×250 mm, Waters, Milford, Mass.) and a gradient ranging from 1 to 34.5% ACN over the course of 35 min. Mass spectrometry was performed on an online coupled Orbitrap Fusion Tribrid mass spectrometer (Thermo Fisher Scientific, Waltham, Mass.) in scheduled parallel reaction monitoring (sPRM) mode following collisional-induced dissociation (CID) of selected precursor ions. Subsequent peak boundary integration was performed in Skyline (MacLean et al., 2010).
The T2 cell line was obtained from DSMZ (ACC 598, lot #2). Cells were cultured in RPMI-1640 medium (Gibco, #A1049101) supplemented with 10% heat-inactivated FBS (Gibco, #10270106) in absence of antibiotics, at 37° C. in a humidified atmosphere containing 5% C02. […]

[2] = test system: Hs695T cells; assay: Peptide loading of Hs695T cells with PRAME peptide isotopologues; absolute copy numbers by AbsQuant (immunoprecipitation and LC/MS); type: cell-based; details: peptide-loaded Hs695T cells; 1 nM is ~0.001 μg/mL
Experimental: (§1) In order to translate detected relative ion intensities into an absolute measure, isotopologue-specific external calibration curves were acquired in two technical replicates. Therefore, a total of seven different isotopologues (Table 2; reconstituted as described above) were mixed to a final concentration of 20 pmol μL^−1. This stock was subsequently further titrated in 5% formic acid prior to LC/MS analysis. The internal standard PRAME peptide_L3L6 was added at a constant amount of 100 fmol per LC/MS injection. Samples were separated by reversed-phase chromatography (nanoAcquity UPLC, Waters, Milford, Mass.) using ACQUITY UPLC BEH C18 columns (75 μm×250 mm, Waters, Milford, Mass.) and a gradient ranging from 1 to 34.5% ACN over the course of 35 min. […]
(§2) The functional analysis of PRAME-loaded T98G cells was assessed in a co-culture setup. […]
(§3) In brief, 2.5×10^7 T98G (or 2×10^7 Hs695T) cells were incubated in 40 ml DMEM+10% FCS supplemented with the respective concentration of peptide for 2 h at 37° C., 5% C02. […] By adding specific substrate, the amount of LDH present in the supernatant was determined by measuring the colorimetric signal in a microplate reader. […]

[3] = test system: T98G cells; assay: Peptide loading of T98G cells with PRAME peptide isotopologues; absolute copy numbers by AbsQuant (immunoprecipitation and LC/MS); type: cell-based; details: peptide-loaded T98G cells; 1 nM is ~0.001 μg/mL
Experimental: as §1, §2, §3

Substance	absolute peptide abundance [1]	loading concentration from which copy numbers are detectable [2]	loading concentration from which copy numbers are detectable [3]
SL*F*HPEDTGQV* [KLK3 peptide L2F3V 11]	~10,000 copies per cell		
SLLQHLIGL (not fully specified; listed as Homo sapiens) [PRAME peptide, PRAME-derived MHC-restricted peptide, loaded as isotopologues]		≥ 1 nM	≥ 1 nM
